Results on four compounds are retold here after US20240011018A1, “MULTIPLEXED METHOD FOR ASSESSING GLOBAL OR GENOMIC LOCUS-SPECIFIC LEVELS OF CHROMATIN MODIFICATION” (Epigenica AB, priority 2020, published 2024).

One test deals with H3K27me3 in HCT116 cells. In words: hmqChIP quantification of global H3K27me3 level after drug treatment, HCT116. Format: cell-based, human. The note with it: 0.5 uM/5 uM, 40 h, anti-H3K27me3 ChIP. As for the experimental part:
(§1) A highly multiplexed experiment profiling global levels of three histone modifications in 96 samples: Two different cancer cell lines (human colon cancer HCT116, human osteosarcoma U2OS) were treated with 11 different drugs at 2 concentrations each (low, high) or DMSO as a control. Two replicates each (rep1, rep2) were performed of each treatment, totaling 96 samples. For U2OS, 9000 cells were seeded per 96-well, For HCT116, 6000 cells were seeded. After 24 h, drugs were added to each well, using the concentration specified in the following table:
(§2) After further growth for 40 h, the cell number was approx. 50 000 cells per well. […]
(§3) The final libraries were sequenced twice, to test the influence of sequencing two different random set of molecules on the quantification of global levels (that only scarcely covering the genome). The first time ˜1 Mio reads were sequenced in total for the four sub-pools (3 ChIP, 1 input), approximately 250 000 per sub-pool. […] The second time at total of 25 Mio reads were collected and either all of the reads were analyzed, or only a randomly selected subset of 1 mio reads. When all reads were analyzed, it corresponds to approx. 260,416 reads per sample. Input-normalized unique read count (INRCs) using DMSO controls as reference were calculated as described in Example 2 and plotted in a heatmap with grayscale and circle size reflecting the INRC.

In test [1] the test system is H3K27me3 in mouse embryonic stem cells. The note with it: dataset according to Kumar and Elsässer 2019; cited from earlier work.
Another test relates to H3K27ac. In words: hmqChIP quantification of global H3K27ac level after drug treatment. The class given is cell-based, human. The settings on record: HCT116 and U2OS cells, 0.5 uM/5 uM, 40 h, anti-H3K27ac ChIP. As for the experimental part: as §1, §2, §3
The subject of another test is H3K27me3 in U2OS cells. The experiment in a line: hmqChIP quantification of global H3K27me3 level after drug treatment, U2OS. Format: cell-based, human. The note with it: 0.5 uM/5 uM, 40 h, anti-H3K27me3 ChIP. As for the experimental part:
as §1, §2, §3

Turning to `CCN(c1cc(C#CCN2CCOCC2)cc(C(=O)NCc2c(C)cc(C)[nH]c2=O)c1C)[C@H]1CC[C@H](N(C)CCOC)CC1` [EPZ011989], the “global H3K27me3 level (INRC relative to DMSO control)” value with H3K27me3 in HCT116 cells is “decrease H3K27me3”. In the case of `CCOC(=O)CCNc1cc(N2CCc3ccccc3CC2)nc(-c2ccccn2)n1` [GSK-J4], the “H3K27me3 level of treated mESC used as calibration cell source” value in test [1] is listed as “increase H3K27me3 above physiologic levels”. Take `O=C(CCCCCCC(=O)Nc1ccccc1)NO` [SAHA]: the “global H3K27ac level (INRC relative to DMSO control)” value with H3K27ac is “increase H3K27ac acetylation”. Take `CC(NC(=O)c1ccccc1/N=C/c1c(O)ccc2ccccc12)c1ccccc1` (centres unmarked) [Sirtinol]: in the test with H3K27ac, the “global H3K27ac level (INRC relative to DMSO control)” value was “increase H3K27ac acetylation”. In addition, in the test on H3K27me3 in U2OS cells, the “global H3K27me3 level (INRC relative to DMSO control)” value is reported as “decreases H3K27me3”.
